Laboratory results: patent US20210230131A1, “POLYAMINO BIARYL COMPOUNDS AND THEIR USE” (INSERM (INSTITUT NATIONAL DE LA SANTÉ ET DE LA RECHERCHE …, priority 2018, published 2021)

Columns and labels:
[1] = Stability of aqueous drinking solutions; assay type: physicochemical
Method: (§1) Thy-Tau22 transgenic colonies (C57Bl/6J genetic background) were obtained by crossing heterozygous males C57Bl/6J with WT females. All animals were housed in a pathogen-free facility at 5 to 6 animals per cage (Techniplast Cages 1284L), with ad libitum access to food and water in a 12/12-hour light-dark cycle and maintained under a constant temperature of 22° C. For treatment, animals were randomly distributed and compound 30 or 31 was provided in the drinking water at a final concentration of 1 mg/kg, ie […] for drinking solutions taking into account an average weight of 25 g/mouse drinking 4 mL/day. […] Food consumption and bodyweight were also assessed. In WT animals, a pilot study of drug treatment was performed for one month to establish the innocuousness of compound 30 and 31 treatments. Thy-Tau22 females were treated for 1 months, starting at 6 months of age.

Tau = Tau phosphorylation by Western-blotting in hippocampus and cortex of ThyTau22 mice; assay type: in vivo; details: one month treatment; for phosphorylation of Tau (overall): hippocampus and cortex
Method: as §1
Hyperphosphorylation and phosphorylation levels of Tau. Tau expression, phosphorylation and hyperphosphorylation in the hippocampus and in the cortex were investigated by Western-blotting (FIGS. 5 and 6). The mice were euthanized by beheading and their brain was dissected and was put for few seconds in an isopropanol solution for post-mortem conservation. The samples were sonicated with a Tris-Sucrose Buffer during 30s and were prepared for Western-blot analysis by adding 1 volume of NuPage NuPAGER©LDS 2× sample buffer supplemented with 20% NuPAGER© sample reducing agents (Invitrogen). Samples were heated 10 min at 70° C. 8 μg of proteins per well were loaded onto precast 12% Criterion XT Bis-Tris polyacrylamide 26 wells gels (Bio-Rad) and electrophoresis was achieved by applying a tension of 200V during 60 min using a Criterion electrophoresis Cell with the NuPAGER©MOPS SDS running buffer (1×). Proteins were transferred to a nitrocellulose membrane of […] pore size (G&E Healthcare) using the Criterion blotting system by applying a tension of 100 V for 40 min. Molecular weights calibration was achieved using molecular weight markers (Novex and Magic Marks, Life Technologies). Protein transfer and quality were determined by a reversible Ponceau Red coloration (0.2% Xylidine Ponceau Red and 3% Trichloroacetic acid). Membranes were then blocked in 25 mM Tris-HCl pH 8.0, 150 mM NaCl, 0.1% Tween-20 (v/v) (TBS-T) and 5% (w/v) of skimmed milk (TBS-M) or 5% (w/v) of bovine serum albumin (TBS-BSA) depending on the antibody during 1 hour. […] Quantifications of protein expression levels were performed with ImageQuantTL Software. The results obtained with the quantification of the treated samples were divided by the results obtained with the quantification of the housekeeping gene (GAPDH) in order to check if the amount of proteins was homogeneous in each well. […]

AICD = AICD by Western blot in SY5Y-APP695WT cells; assay type: cell-based, human; details: AICD increase compared to chloroquine ([AICD]compound/[AICD]CQ) at 3 μM; mean of at least three experiments
Description: Antibodies. Primary antibodies used in this study for western-blot analysis included a homemade rabbit antiserum against the last 17 amino acids of human APP protein sequence, named APP-Cter-C17 (1/5000 in TBS-M). Anti-β-actin (1/10 000 in TBS-M) was obtained from Sigma. Anti-LC3B (1/2000 in TBS-BSA) and anti-p62/SQSTM1 (1/2000 in TBS-M) antibodies were purchased from Cell Signaling Technology. Secondary antibodies (peroxidase-labeled goat anti-rabbit IgG, 1/5000 or peroxidase-labeled horse anti-mouse IgG, 1/50000 in TBS-T) were obtained from Vector Laboratories.
Cell culture and treatment. The human neuroblastoma cell line SY5Y-APP^695WT was maintained in Dulbecco's modified Eagle medium (DMEM, high glucose, pyruvate—GIBCO by Life Technologies) supplemented with 10% foetal bovine serum, 2 mM L-glutamine, 1 mM non-essential amino acids and penicillin/streptomycin (GIBCO by Life Technologies) at 37° C. in a 5% CO2 humidified incubator. SY5Y-APP^695WT cells were maintained in 75 cm^2 culture flasks (Falcon) with supplemented DMEM medium until they reached 80% of confluence 24 h before treatment.
For drug treatment, cells were plated at a rate of 5·10^5 cells per well into 12-well plates (Falcon) and cultured with 1 mL supplemented DMEM cell medium for 24 h before drug exposure. The following day, cell medium was replaced with fresh medium containing drugs diluted at the indicated concentrations. Cells were treated for 24 h. At the end of treatments, the cell medium was collected and kept at −80° C. until use for dosage. Then, cells were rinsed once with PBS and extracted in 100 μL of Laemmli buffer (10 mM Tris, 20% glycerol and 2% Sodium dodecyl sulfate) using a cell-scraper. The cell lysate was further sonicated (30 pulses of 0.5 s, 60 Hz) for 5 min. Total protein concentration was determined using the Pierce BCA Protein Assay Kit (Thermo scientific) according to the manufacturer's instructions. Samples were stored at −80° C. until analysis.
Western Blot Analysis. Cell protein lysates were prepared for western-blot analysis by diluting the sample with 1 volume of NuPAGE® lithium dodecyl sulfate (LDS) 2× sample buffer supplemented with 20% NuPAGE® sample reducing agents (Invitrogen). Samples were heat 10 min at 100° C. 10 μg of total proteins per well were loaded onto a precast 4-12% Criterion XT Bis-Tris polyacrylamide gel (Bio-Rad) and electrophoresis was achieved after applying a tension of 150 V during 90 min using a Criterion electrophoresis Cell with the NuPAGE® MOPS SDS running buffer (1×). Proteins were transferred to a nitrocellulose membrane of […] pore size (G&E Healthcare) using the Criterion blotting system and applying a tension of 100 V for 45 min. To resolve proteins of low molecular weights such as carboxy-terminal fragments of APP, 12% Criterion XT Bis-Tris polyacrylamide gels (Bio-Rad) were used and electrophoresis was performed during 70 min at 150 V in a NuPAGE® MES SDS running buffer (1×). Proteins were transferred to a nitrocellulose membrane of 0.2 μm pore size (G&E Healthcare) at 100 V for 40 min. Molecular weights calibration was achieved using molecular weight markers (Novex and Magic Marks, Life Technologies). Protein transfer and quality were determined by a reversible Ponceau Red coloration (0.2% Xylidine Ponceau Red and 3% Trichloroacetic acid). Membranes were then blocked in 25 mM Tris-HCl pH 8.0, 150 mM NaCl, 0.1% Tween-20 (v/v) (TBS-T) and 5% (w/v) of skimmed milk (TBS-M) or 5% (w/v) of bovine serum albumin (TBS-BSA) depending on the antibody during 1 h. Membrane was rinsed three-times 10 min in TBS-T before incubation with the primary antibody overnight at 4° C. Membrane was rinsed 3 times 10 min with TBS-T and then incubated with the secondary antibody for 45 min at room temperature (RT). […] Quantifications of protein expression levels were performed with ImageJ Software (NIH). […]

| SMILES | stability of aqueous solutions [1] | phosphorylation of Tau (overall) (Tau) | AICD vs CQ (3 μM) (AICD) | Tau phosphorylation sites in the cortex (Tau; Western-blot) | Tau phosphorylation sites in the hippocampus (Tau; Western-blot) |
| --- | --- | --- | --- | --- | --- |
| CN(C)Cc1ccccc1-c1ccc(NCCCN2CCCCC2)c(OCCN2CCCCC2)c1 [Compound 30, 4-(2-[(Dimethylamino)methyl]phenyl)-2-[2-(piperidin-1-yl)ethoxy]-N-[3-(piperidin-1-yl)propyl]aniline] | stable during more than one week | showed less effect on Tau phosphorylation | 3.6 |  |  |
| CN(C)Cc1ccccc1-c1ccc(NCCCN2CCCCC2)c(OCCC2CCCCC2)c1 [Compound 31, 3-(2-cyclohexylethoxy)-2′-((dimethylamino)methyl)-N-(3-(piperidin-1-yl)propyl)-[1,1′-biphenyl]-4-amine] | stable during more than one week | decreased the phosphorylation of Tau in the hippocampus and in the cortex | 0.1 | decreased significantly the p422, AT100, p396 and p262 phosphorylation sites | p422 and p262 phosphorylation sites were also significantly reduced |
